The text below walks through data of patent US7727977B2, “Kynurenine 3-hydroxylase inhibitors for the treatment of diabetes” (Merck Patent Gesellschaft mit beschrankter Haftung, priority 2003, dated 2010).

Marks after values point to notes of the source that are not given here.

In one assay the target is T1, kynurenine 3-hydroxylase (Rattus norvegicus, UniProt O88867).
T1 construct: incubating 10 μL of the homogenate with NADPH (2 mM), kynurenine (100 μM); from tissue; host or cells: rat liver (pellet of the homogenate, resuspended)
T1 sequence (O88867 whole entry): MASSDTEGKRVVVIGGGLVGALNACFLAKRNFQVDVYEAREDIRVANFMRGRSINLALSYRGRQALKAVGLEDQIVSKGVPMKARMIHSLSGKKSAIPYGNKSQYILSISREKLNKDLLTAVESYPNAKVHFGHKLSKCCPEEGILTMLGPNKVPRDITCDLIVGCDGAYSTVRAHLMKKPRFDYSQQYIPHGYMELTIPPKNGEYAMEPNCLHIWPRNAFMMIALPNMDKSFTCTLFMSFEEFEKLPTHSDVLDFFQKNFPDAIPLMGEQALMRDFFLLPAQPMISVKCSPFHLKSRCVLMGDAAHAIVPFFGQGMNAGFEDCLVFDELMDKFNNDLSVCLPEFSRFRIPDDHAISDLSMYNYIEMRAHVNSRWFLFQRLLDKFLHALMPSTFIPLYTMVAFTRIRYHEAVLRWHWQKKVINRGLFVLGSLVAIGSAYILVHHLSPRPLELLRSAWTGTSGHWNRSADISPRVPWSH
The experiment in a line: Inhibitory activity on kynurenine 3-hydroxylase in rat liver homogenate. The assay is classed as biochemical. Particulars: test concentration not given. The protocol: Study of the Inhibitory Activity on Kynurenine 3-hydroxylase in Rat Liver
Rat livers are homogenised (1:8 weight/volume) in a buffer solution comprising: • 0.25 M sucrose • 50 mM pH 7.4 Tris; • 1 mM EDTA; and • 1 mM DTT.
The homogenates are centrifuged for 10 minutes at 12 000 rpm. The pellets are resuspended in the buffer solution described above (1:2 weight/volume).
The kynurenine 3-hydroxylase inhibition is determined by incubating 10 μL of the homogenate with NADPH (2 mM), kynurenine (100 μM) and various concentrations of the test compounds in a final volume of 100 μL at 37° C. for 5 minutes.
The compounds are tested at concentrations of between 1 μM and 300 μM. 3,4-Dimethoxy-N-[4-(3-nitrophenyl)thiazol-2-yl]benzenesulfonamide is a compound from the company Hoffmann-LaRoche (Basle, see J. Med. Chem., 40 (1997), 4738). 30H-Kynurenine was tested according to the protocol described by Carpendo et al. (Neuroscience, 61 (1994), 237-244).
Each of the experiments is repeated once and the IC50 values (in μmol/L) are calculated and given in the form of a mean of these two experiments.
Results concerning representative examples of family Ih are given in Table II below, in which is indicated the measurement of the percentage of remaining kynurenine 3-hydroxylase activity relative to the control (100%).

Another assay relates to primary hepatocytes. The experiment in a line: Hepatic glucose production, basal lactate/pyruvate 2 hours, in primary hepatocytes. On the set-up: Hepatic glucose production: unit not given here. It is filed as cell-based, Wistar rats. Particulars: for hepatic glucose production in vitro (result in words): primary rat hepatocytes, summary of Tables III and IV. The protocol: Study of the Effect on Glucose Production by the Liver Materials and Method:
After washing in pH 7.4 PBS buffer, the cells are incubated for two hours at 37° C. in a Krebs buffer free of glucose and of insulin, containing lactate/pyruvate (10/1 mM) in the presence or absence of the test compounds. 10 μM MICA (5-methoxyindole-2-carboxylic acid) is used as reference substance. Two identical experiments are performed (Table III-2).
The protein assay is performed on the rest of the incubation medium via the Lowry method (BIO-RAD Dc protein assay, BIO-RAD 5000116).
The results are expressed as nmoles of glucose produced per […] of proteins. The statistical test used is the t test.

Assay [1] deals with perfused isolated pancreases from N0 STZ diabetic rats. Description: Secretion of insulin and glucagon in perfused isolated pancreases from N0 STZ diabetic rats. It is filed as cell-based. Particulars: absence of glucose, then 16.5 mM glucose; diabetic rat pancreas. An excerpt: Study of the Effect on the Secretion of the Pancreatic Hormones Insulin and Glucagon, in N0STZ Diabetic Rats
The results are expressed as the mean±SEM (standard error of mean) of several experiments. The statistical test used is the Scheffé test.

“2-(2′-naphthylthio)-4-(4′-chlorophenyl)-4-oxobutanoic acid [Ih-30]”: the “Remaining kynurenine 3-hydroxylase activity (% of control)” value at kynurenine 3-hydroxylase was 24.3%.

Consider `O=C(C[C@@H](Cc1ccccc1)C(=O)O)c1ccc(Cl)c(Cl)c1` (racemic) [Compound j, (R,S)-2-benzyl-4-(3′,4′-dichlorophenyl)-4-oxobutanoic acid], for which the “Inhibition of hepatic glucose production” value with primary hepatocytes (1 μM) is given as 30** %; with primary hepatocytes (10 μM), 51** %; in the assay with primary hepatocytes (100 μM) it was 65** %. Also, in the assay with primary hepatocytes, the “hepatic glucose production in vitro (result in words)” value (“hepatic glucose production in vitro” below) is “powerful inhibitors of hepatic glucose production in vitro”.

Turning to `O=C(C[C@@H](Cc1ccccc1)C(=O)O)c1ccc(F)cc1` [Compound i, (R)-2-benzyl-4-(4-fluorophenyl)-4-oxobutanoic acid], the “glucagon secretion (result in words)” value in assay [1] is “stimulation”. In assay [1], the “insulin secretion (result in words)” value is “stimulation”. For the same molecule, the Hepatic glucose production came out at 88 ± 7 in the assay on primary hepatocytes (1 μM), 73 ± 4 in the assay with primary hepatocytes (10 μM) and 39 ± 3 with primary hepatocytes (100 μM). For the same molecule, the “hepatic glucose production in vitro” value in the assay on primary hepatocytes is recorded as “powerful inhibitors of hepatic glucose production in vitro”.

For `COc1ccc(S(=O)(=O)Nc2nc(-c3cccc([N+](=O)[O-])c3)cs2)cc1OC` [Compound k, 3,4-dimethoxy-N-[4-(3-nitrophenyl)thiazol-2-yl]benzenesulfonamide, reference compound], in assay [1], the “glucagon secretion (result in words)” value is given as “stimulation” and the “insulin secretion (result in words)” value is recorded as “stimulation”.

Turning to `O=C(CC(Sc1ccccc1)C(=O)O)c1ccccc1` (stereo not shown) [Ih-2, 2-phenylthio-4-phenyl-4-oxobutanoic acid], on kynurenine 3-hydroxylase, the “Remaining kynurenine 3-hydroxylase activity (% of control)” value is 70.4%.

Regarding `O=C(CC(Sc1ccc(F)cc1)C(=O)O)c1ccccc1` (stereo not shown) [Ih-3, 2-(4′-fluorophenylthio)-4-phenyl-4-oxobutanoic acid], the “Remaining kynurenine 3-hydroxylase activity (% of control)” value at kynurenine 3-hydroxylase came to 50.4%.

Consider `O=C(CC(Sc1ccc(Cl)cc1)C(=O)O)c1ccccc1` (stereo not shown) [Ih-4, 2-(4′-chlorophenylthio)-4-phenyl-4-oxobutanoic acid], for which the “Remaining kynurenine 3-hydroxylase activity (% of control)” value at kynurenine 3-hydroxylase was 34.8%.

Consider `Cc1ccc(SC(CC(=O)c2ccccc2)C(=O)O)cc1` (stereo not shown) [Ih-5, 2-(4′-methylphenylthio)-4-phenyl-4-oxobutanoic acid], for which, on kynurenine 3-hydroxylase, the “Remaining kynurenine 3-hydroxylase activity (% of control)” value is listed as 45.4%.

`O=C(CC(SC1CCCCC1)C(=O)O)c1ccccc1` (stereo not shown) [Ih-7, 2-cyclohexylthio-4-phenyl-4-oxobutanoic acid]: the “Remaining kynurenine 3-hydroxylase activity (% of control)” value on kynurenine 3-hydroxylase is recorded as 81.3%.

With `O=C(CC(SCc1ccccc1)C(=O)O)c1ccccc1` (stereo not shown) [Ih-8, 2-benzylthio-4-phenyl-4-oxobutanoic acid], the “Remaining kynurenine 3-hydroxylase activity (% of control)” value at kynurenine 3-hydroxylase was found to be 68.6%.

As for `CCOC(=O)C(CC(=O)c1ccccc1)Sc1ccccc1` (stereo not shown) [Ih-9, ethyl 2-phenylthio-4-phenyl-4-oxobutanoate], the “Remaining kynurenine 3-hydroxylase activity (% of control)” value on kynurenine 3-hydroxylase amounted to 80.8%.

For `CCOC(=O)C(CC(=O)c1ccccc1)Sc1ccc(F)cc1` (stereo not shown) [Ih-10, ethyl 2-(4′-fluorophenylthio)-4-phenyl-4-oxobutanoate], at kynurenine 3-hydroxylase, the “Remaining kynurenine 3-hydroxylase activity (% of control)” value was 66.7%.

As to `CCOC(=O)C(CC(=O)c1ccccc1)Sc1ccc(Cl)cc1` (stereo not shown) [Ih-11, ethyl 2-(4′-chlorophenylthio)-4-phenyl-4-oxobutanoate], the “Remaining kynurenine 3-hydroxylase activity (% of control)” value on kynurenine 3-hydroxylase was 44.6%.

With `CCOC(=O)C(CC(=O)c1ccccc1)Sc1ccc(C)cc1` (stereo not shown) [Ih-12, ethyl 2-(4′-methylphenylthio)-4-phenyl-4-oxobutanoate], the “Remaining kynurenine 3-hydroxylase activity (% of control)” value on kynurenine 3-hydroxylase came to 63.3%.

With `CCOC(=O)C(CC(=O)c1ccccc1)Sc1ccc(OC)cc1` (stereo not shown) [Ih-13, ethyl 2-(4′-methoxyphenylthio)-4-phenyl-4-oxobutanoate], on kynurenine 3-hydroxylase, the “Remaining kynurenine 3-hydroxylase activity (% of control)” value is 55.2%.

Consider `CCOC(=O)C(CC(=O)c1ccccc1)SC1CCCCC1` (stereo not shown) [Ih-15, ethyl 2-cyclohexylthio-4-phenyl-4-oxobutanoate], for which, at kynurenine 3-hydroxylase, the “Remaining kynurenine 3-hydroxylase activity (% of control)” value turned out to be 95.0%.

Take `CCOC(=O)C(CC(=O)c1ccccc1)SCc1ccccc1` (stereo not shown) [Ih-16, ethyl 2-benzylthio-4-phenyl-4-oxobutanoate]: the “Remaining kynurenine 3-hydroxylase activity (% of control)” value at kynurenine 3-hydroxylase is recorded as 84.4%.

For `COc1ccc(C(=O)CC(Sc2ccccc2)C(=O)O)cc1` (stereo not shown) [Ih-17, 2-phenylthio-4-(4′-methoxyphenyl)-4-oxobutanoic acid], the “Remaining kynurenine 3-hydroxylase activity (% of control)” value at kynurenine 3-hydroxylase stood at 16.0%.

On to `COc1ccc(C(=O)CC(Sc2ccc(F)cc2)C(=O)O)cc1` (stereo not shown) [Ih-18, 2-(4′-fluorophenylthio)-4-(4′-methoxyphenyl)-4-oxobutanoic acid], for which the “Remaining kynurenine 3-hydroxylase activity (% of control)” value on kynurenine 3-hydroxylase is 6.6%.

As for `COc1ccc(C(=O)CC(Sc2ccc(Cl)cc2)C(=O)O)cc1` (stereo not shown) [Ih-19, 2-(4′-chlorophenylthio)-4-(4′-methoxyphenyl)-4-oxobutanoic acid], the “Remaining kynurenine 3-hydroxylase activity (% of control)” value on kynurenine 3-hydroxylase worked out at 4.1%.

For `COc1ccc(C(=O)CC(Sc2ccc(C)cc2)C(=O)O)cc1` (stereo not shown) [Ih-20, 2-(4′-methylphenylthio)-4-(4′-methoxyphenyl)-4-oxobutanoic acid], the “Remaining kynurenine 3-hydroxylase activity (% of control)” value on kynurenine 3-hydroxylase turned out to be 13.3%.

As for `COc1ccc(SC(CC(=O)c2ccc(OC)cc2)C(=O)O)cc1` (stereo not shown) [Ih-21, 2-(4′-methoxyphenylthio)-4-(4′-methoxyphenyl)-4-oxobutanoic acid], the “Remaining kynurenine 3-hydroxylase activity (% of control)” value at kynurenine 3-hydroxylase amounted to 17.4%.

Consider `COc1ccc(C(=O)CC(SC2CCCCC2)C(=O)O)cc1` (stereo not shown) [Ih-23, 2-cyclohexylthio-4-(4′-methoxyphenyl)-4-oxobutanoic acid], for which, on kynurenine 3-hydroxylase, the “Remaining kynurenine 3-hydroxylase activity (% of control)” value is 38.1%.

For `COc1ccc(C(=O)CC(SCc2ccccc2)C(=O)O)cc1` (stereo not shown) [Ih-24, 2-benzylthio-4-(4′-methoxyphenyl)-4-oxobutanoic acid], the “Remaining kynurenine 3-hydroxylase activity (% of control)” value on kynurenine 3-hydroxylase was 18.9%.

As for `O=C(CC(Sc1ccccc1)C(=O)O)c1ccc(Cl)cc1` (stereo not shown) [Ih-25, 2-phenylthio-4-(4′-chlorophenyl)-4-oxobutanoic acid], the “Remaining kynurenine 3-hydroxylase activity (% of control)” value on kynurenine 3-hydroxylase is 67.6%.

Consider `O=C(CC(Sc1ccc(F)cc1)C(=O)O)c1ccc(Cl)cc1` (stereo not shown) [Ih-26, 2-(4′-fluorophenylthio)-4-(4′-chlorophenyl)-4-oxobutanoic acid], for which, at kynurenine 3-hydroxylase, the “Remaining kynurenine 3-hydroxylase activity (% of control)” value was 55.5%.

`O=C(CC(Sc1ccc(Cl)cc1)C(=O)O)c1ccc(Cl)cc1` (stereo not shown) [Ih-27, 2-(4′-chlorophenylthio)-4-(4′-chlorophenyl)-4-oxobutanoic acid]: on kynurenine 3-hydroxylase, the “Remaining kynurenine 3-hydroxylase activity (% of control)” value came to 34.9%.

Regarding `Cc1ccc(SC(CC(=O)c2ccc(Cl)cc2)C(=O)O)cc1` (stereo not shown) [Ih-28, 2-(4′-methylphenylthio)-4-(4′-chlorophenyl)-4-oxobutanoic acid], at kynurenine 3-hydroxylase, the “Remaining kynurenine 3-hydroxylase activity (% of control)” value is given as 50.5%.

Take `O=C(O)c1cc(=O)c2ccccc2[nH]1` [Kynurenic acid]: in assay [1], the “glucagon secretion (result in words)” value is “stimulates” and the “insulin secretion (result in words)” value was “stimulates the secretion of insulin”.

In the case of `Nc1ccccc1C(=O)CC(N)C(=O)O` (stereo not shown) [Kynurenine], in assay [1], the “glucagon secretion (result in words)” value was “stimulated” and the “insulin secretion (result in words)” value was “stimulated”. In addition, the “hepatic glucose production in vitro” value in the assay on primary hepatocytes is reported as “powerful inhibitors of hepatic glucose production in vitro”.

With `N[C@@H](Cc1c[nH]c2ccccc12)C(=O)O` [Tryptophan, reference compound], in assay [1], the “glucagon secretion (result in words)” value was “stimulates glucagon secretion in a glucose-dependent manner” and the “insulin secretion (result in words)” value was “stimulates insulin secretion in a glucose-dependent manner”. The “hepatic glucose production in vitro” value in the assay on primary hepatocytes is “powerful inhibitors of hepatic glucose production in vitro”.

As for “ethyl 2-(2′-naphthylthio)-4-phenyl-4-oxobutanoate [Ih-14]”, the “Remaining kynurenine 3-hydroxylase activity (% of control)” value on kynurenine 3-hydroxylase is 30.0%.
